Measured values reported in patent US7390817B2, “Combinations of a vanilloid antagonist and an NSAID for the treatment of pain” (Glaxo Group Limited, priority 2002, dated 2008).

Tested on: FCA-induced mechanical hypersensitivity
Assay: Guinea Pig FCA Model (mechanical hyperalgesia, paw pressure)
Assay type: in vivo
Details: male Dunkin-Hartley guinea-pigs, FCA intraplantar left paw, oral dosing 24 hours later, reading 1 hour after drug administration; Compound A 1.5 mg/kg, Compound B 1 mg/kg
Procedure: 100 μl of 1 mg/ml FCA was injected intraplantar into the left paw of 6 groups of 6 male Dunkin-Hartley guinea-pigs (average weight 330 g) in order to induce inflammation and evoke a mechanical hypersensitivity (Ref. Stein, C., Millan, M. J., and Herz, A., Unilateral inflammation of the hind paw in rats as a model of prolonged noxious stimulation: alterations in behaviour and nociceptive thresholds, Pharmacol. Biochem. Behav., 31 (1988) 445-451). 24 hours later 1.5 mg/kg rofecoxib, 1 mg/kg N-(2-Bromophenyl)-N′-[((R)-1-(5-trifluoromethyl-2-pyridyl)pyrrolidin-3-yl)]urea and a combination of both was administered orally with the vehicle being 1% methylcellulose, the dosing volume being 2 ml/kg and dosing straight into the stomach. The methylcellulose was added gradually to the compound into the pestle and mortar and ground together. The mixtures were then sonnicated for 20 minutes. Behavioural readouts of mechanical hyperalgesia were obtained before FCA adminsitration (naive reading), after FCA but before drug administration (predose reading) and 1 hour after drug administration. […] The readout used was paw withdrawal in response to paw pressure (Ref. Randall L O, Selitto J J. (1957) A method for measurement of analgesic activity on inflammed tissue. Arch Int. Pharmacodyn 61, 409419.) and the end point was paw withdrawal. […]

Row | Structure (SMILES) | % reversal of mechanical hypersensitivity [%]
1 | CS(=O)(=O)c1ccc(C2=C(c3ccccc3)C(=O)OC2)cc1 [Compound A, rofecoxib] | 30.6
2 | O=C(Nc1ccccc1Br)N[C@@H]1CCN(c2ccc(C(F)(F)F)cn2)C1 [Compound B, N-(2-Bromophenyl)-N′-[((R)-1-(5-trifluoromethyl-2-pyridyl)pyrrolidin-3-yl)]urea] | 32.5
